In brackets after ≈: the same amount, converted by molar mass. Read-outs that look alike come from different tables or passages of the source.
Key:
[1] = test system: Candida krusei CCM 8271 (ATCC 6258); experiment: Antifungal microdilution broth (EUCAST); settings: Pichia kudriavzevii, 24 h, read-out: MIC CK
[2] = test system: M. smegmatis DSM 43465 (ATCC 607); experiment: Antimycobacterial MIC, microdilution broth / resazurin; format: cell-based; settings: Mycolicibacterium smegmatis, read-out: MIC M. smegmatis
[3] = test system: Aspergillus fumigatus ATCC 204305; experiment: Antifungal microdilution broth (EUCAST); settings: Aspergillus fumigatus, ATCC204305, 24 h, read-out: MIC AF
[4] = test system: M. kansasii DSM 44162 (ATCC 12478); experiment: Antimycobacterial MIC, microdilution broth / resazurin; format: cell-based; settings: Mycobacterium kansasii, read-out: MIC M. kansasii
[5] = test system: Enterococcus faecalis CCM 4224 (ATCC 29212); experiment: Antibacterial microdilution broth (EUCAST); format: cell-based; settings: Enterococcus faecalis; 24h incubation; read-out: MIC EF
[6] = test system: M. aurum DSM 43999 (ATCC 23366); experiment: Antimycobacterial MIC, microdilution broth / resazurin; format: cell-based; settings: Mycolicibacterium aurum; resazurin after 72 h; read-out: MIC M. aurum
[7] = test system: Candida albicans CCM 8320 (ATCC 24433); experiment: Antifungal microdilution broth (EUCAST); settings: Candida albicans, 24 h, read-out: MIC CA
[8] = test system: Trichophyton interdigitale CCM 8377 (ATCC 9533); experiment: Antifungal microdilution broth (EUCAST); settings: Trichophyton interdigitale, 72 h, read-out: MIC TI
[9] = RP-UHPLC lipophilicity parameter log k’w; format: physicochemical; settings: for log k’w: RP-UHPLC, acetonitrile/water, log k extrapolated to 0% acetonitrile; for logkw: experimental lipophilicity parameter
Excerpt: Lipophilicity and water solubility of the drug candidates are important parameters as they are often directly related to their ADME properties in the organism. Lipophilicity is usually expressed as the logarithm of the partition coefficient in n-octanol/water (log P). Due to its laborious determination, especially in the HTS screening, other experimental methods such as RP-HPLC log k’w or purely computational approaches such as Clog P were proposed and have been established as reasonable estimators of true lipophilicity. To investigate the changes in lipophilicity upon introduction of oxazole in the title compounds, we determined the log k’w of all derivatives and compared respective values among the pairs.
The log k of the synthesized compounds was measured using the same instrument (single measurement per concentration), software, and column as was used in the purity evaluation. Working solutions were diluted as described above for purity determination. The log k parameter was calculated after the UHPLC measurements using isocratic mode with mobile phase acetonitrile (B)/water (A) in a set of concentrations of 40, 45, 50% and 20, 30, 40% B for subtype I and subtype II, respectively.

[10] = test system: Pseudomonas aeruginosa CCM 3955 (ATCC 27853); experiment: Antibacterial microdilution broth (EUCAST); format: cell-based; settings: Pseudomonas aeruginosa; 72h incubation; read-out: MIC PA
[11] = test system: Acinetobacter baumannii DSM 30007 (ATCC 19606); experiment: Antibacterial microdilution broth (EUCAST); format: cell-based; settings: Acinetobacter baumannii; 24h incubation; read-out: MIC AB
[12] = test system: M. avium DSM 44156 (ATCC 25291); experiment: Antimycobacterial MIC, microdilution broth / resazurin; format: cell-based, Mycobacterium avium; settings: for MIC: Mycobacterium avium, read-out: MIC M. avium
[13] = test system: Staphylococcus epidermidis CCM 4418 (ATCC 12228); experiment: Antibacterial microdilution broth (EUCAST); format: cell-based; settings: Staphylococcus epidermidis; 24h incubation; read-out: MIC SE
[14] = test system: Candida parapsilosis CCM 8260 (ATCC 22019); experiment: Antifungal microdilution broth (EUCAST); settings: Lodderomyces parapsilosis, 24 h, read-out: MIC CP
[15] = test system: Candida tropicalis CCM 8264 (ATCC 750); experiment: Antifungal microdilution broth (EUCAST); settings: Candida tropicalis, 24 h, read-out: MIC CT
[16] = test system: Escherichia coli CCM 3954 (ATCC 25922); experiment: Antibacterial microdilution broth (EUCAST); format: cell-based; settings: Escherichia coli; 24h incubation; read-out: MIC EC
[17] = test system: Staphylococcus aureus subsp. aureus CCM 4223 (ATCC 29213); experiment: Antibacterial microdilution broth (EUCAST); format: cell-based; settings: Staphylococcus aureus; 24h incubation; read-out: MIC SA
[18] = test system: Mycobacterium tuberculosis H37Ra ITM-M006710 (ATCC 9431); experiment: Antimycobacterial MIC, microdilution broth / Alamar Blue (resazurin); format: cell-based; settings: Mycobacterium tuberculosis
[19] = test system: Lichtheimia corymbifera CCM 8077; experiment: Antifungal microdilution broth (EUCAST); settings: Lichtheimia corymbifera, CCM8077, 24 h, read-out: MIC LC
[20] = test system: Aspergillus flavus CCM 8363; experiment: Antifungal microdilution broth (EUCAST); settings: Aspergillus flavus, CCM8363, 24 h, read-out: MIC AFla
[21] = test system: Staphylococcus aureus subsp. aureus (MRSA) CCM 4750 (ATCC 43300); experiment: Antibacterial microdilution broth (EUCAST); format: cell-based; settings: Staphylococcus aureus; 24h incubation; read-out: MIC MRSA
[22] = test system: HepG2 cells; experiment: HepG2 cytotoxicity screening (CellTiter 96); format: cell-based, human; settings: for IC50: Homo sapiens, HepG2, 24 h, 24 h incubation, CellTiter 96, * above highest tested concentration, ** limited by insolubility in medium; for SI: SI = IC50 (µM) HepG2 / MICH37Ra (µM)
[23] = 120 h, Middlebrook 7H9, resazurin after 120 h, read-out: Mtb H37Ra MIC
[24] = recalculated from µg/mL, read-out: MICH37Ra

Row | SMILES | MIC [1] | MIC [3] | MIC [5] | MIC [6] | MIC [7] | MIC [8] | log k’w [9] | logkw [9] | MIC [10] | MIC [11] | MIC [13] | MIC [14] | MIC [15] | MIC [16] | MIC [17] | MIC [18, 23] | MIC [19] | MIC [20] | MIC [21] | melting point | other results
1 | O=C(Nc1nccs1)c1ccncc1 [Compound 3a] | > 500 µM | > 500 µM | > 500 µM | ≥ 500 µg/mL | > 500 µM | > 500 µM | 1.306 | 1.306 | > 500 µM | > 500 µM | > 500 µM | > 500 µM | > 500 µM | > 500 µM | > 500 µM | 250 µg/mL | > 500 µM | > 500 µM | > 500 µM | 194 to 195 °C | MIC ([2]; resazurin after 48 h): ≥ 500 µg/mL; MIC ([4]; resazurin after 96 h): 250 µg/mL (≈ 1220 µM); MIC ([12]; resazurin after 96 h): ≥ 500 µg/mL; IC50 [22]: > 1000 µM
2 | Cc1cncc(C(=O)Nc2ncco2)c1 [Compound 4b] | > 500 µM | > 500 µM | > 500 µM | 31.2 µg/mL (≈ 154 µM) | > 500 µM | > 500 µM | 0.888 | 0.8881 | > 500 µM | 500 µM (≈ 102 µg/mL) | 500 µM (≈ 102 µg/mL) | > 500 µM | > 500 µM | > 500 µM | 500 µM (≈ 102 µg/mL) | 7.81 µg/mL | > 500 µM | > 500 µM | 500 µM (≈ 102 µg/mL) | 171 to 175 °C | MIC ([2]; resazurin after 48 h): ≥ 500 µg/mL; MIC ([4]; resazurin after 96 h): 62.5 µg/mL (≈ 308 µM); MIC ([12]; resazurin after 96 h): 125 µg/mL (≈ 615 µM); MIC [18, 24]: 38.4 µM; IC50 [22]: > 1000 µM; SI [22]: >26.0
3 | Cc1cc(C(=O)Nc2ncco2)ccn1 [Compound 5b] | > 125 µM | > 125 µM | > 500 µM | 15.6 µg/mL (≈ 76.9 µM) | > 125 µM | > 125 µM | 0.714 | 0.714 | > 500 µM | > 500 µM | > 500 µM | > 125 µM | > 125 µM | > 500 µM | > 500 µM | 3.91 µg/mL | > 125 µM | > 125 µM | > 500 µM | 149 to 152 °C | MIC ([2]; resazurin after 48 h): 250 µg/mL (≈ 1230 µM); MIC ([4]; resazurin after 96 h): 31.2 µg/mL (≈ 154 µM); MIC ([12]; resazurin after 96 h): 62.5 µg/mL (≈ 308 µM); MIC [18, 24]: 19.2 µM; IC50 [22]: > 1000 µM; SI [22]: >52.0
4 | O=C(Nc1nccs1)c1cnc(Cl)cn1 [Compound 9a] | > 500 µM | 500 µM (≈ 120 µg/mL) | > 500 µM | ≥ 500 µg/mL | > 500 µM | > 500 µM | 1.941 | 1.941 | > 500 µM | > 500 µM | > 500 µM | > 500 µM | > 500 µM | > 500 µM | > 500 µM | 31.2 µg/mL | > 500 µM | 500 µM (≈ 120 µg/mL) | > 500 µM | 197 to 200 °C | MIC ([2]; resazurin after 48 h): ≥ 500 µg/mL; MIC ([4]; resazurin after 96 h): < 3.91 µg/mL; MIC ([12]; resazurin after 96 h): 15.6 µg/mL (≈ 64.9 µM)
5 | O=C(Nc1ncco1)c1cnc(Cl)cn1 [Compound 9b] | 250 µM (≈ 56.2 µg/mL) | 500 µM (≈ 112 µg/mL) | > 500 µM | 15.6 µg/mL (≈ 69.6 µM) | 250 µM (≈ 56.2 µg/mL) | 62.5 µM (≈ 14 µg/mL) | 0.958 | 0.958 | > 500 µM | > 500 µM | > 500 µM | 500 µM (≈ 112 µg/mL) | > 500 µM | > 500 µM | > 500 µM | 31.2 µg/mL | 500 µM (≈ 112 µg/mL) | > 500 µM | > 500 µM | 160 to 164 °C | MIC ([2]; resazurin after 48 h): 62.5 µg/mL (≈ 278 µM); MIC ([4]; resazurin after 96 h): < 3.91 µg/mL; MIC ([12]; 96 h): 31.2 µg/mL (≈ 139 µM)
6 | Cc1cc(C(=O)Nc2nc(-c3ccccc3)cs2)cc(Cl)n1 [Compound 16a] | > 125 µM | > 125 µM | > 500 µM | 15.6 µg/mL (≈ 47.4 µM) | > 125 µM | > 125 µM | 3.314 | 3.314 | > 500 µM | > 500 µM | > 500 µM | > 125 µM | > 125 µM | > 500 µM | > 500 µM | 7.81 µg/mL | > 125 µM | > 125 µM | > 500 µM | 92 to 96 °C | MIC ([2]; 48 h): 7.81 µg/mL (≈ 23.7 µM); MIC ([4]; resazurin after 96 h): 3.91 µg/mL (≈ 11.9 µM); MIC ([12]; 96 h): 7.81 µg/mL (≈ 23.7 µM)
7 | Cc1cc(C(=O)Nc2nc(-c3ccccc3)co2)cc(Cl)n1 [Compound 16b] | > 125 µM | > 125 µM | > 125 µM | 7.81 µg/mL (≈ 24.9 µM) | > 125 µM | 62.5 µM (≈ 19.6 µg/mL) | 2.251 | 2.251 | > 125 µM | > 125 µM | 125 µM (≈ 39.2 µg/mL) | > 125 µM | > 125 µM | > 125 µM | 62.5 µM (≈ 19.6 µg/mL) | 15.6 µg/mL | > 125 µM | > 125 µM | 62.5 µM (≈ 19.6 µg/mL) | 83 to 86 °C | MIC ([2]; resazurin after 48 h): 31.2 µg/mL (≈ 99.6 µM); MIC ([4]; 96 h): 15.6 µg/mL (≈ 49.8 µM); MIC ([12]; resazurin after 96 h): 7.81 µg/mL (≈ 24.9 µM)
8 | O=C(Nc1nc(-c2ccccc2)cs1)c1cnc2ccccc2n1 [Compound 19a] | > 125 µM | > 125 µM | > 250 µM | ≥ 500 µg/mL | > 125 µM | > 125 µM | 3.583 | 3.583 | > 250 µM | > 250 µM | > 250 µM | > 125 µM | > 125 µM | > 250 µM | > 250 µM | ≥ 500 µg/mL | > 125 µM | > 125 µM | > 250 µM | 217 to 219 °C | MIC ([2]; resazurin after 48 h): ≥ 500 µg/mL; MIC ([4]; resazurin after 96 h): ≥ 500 µg/mL; MIC ([12]; resazurin after 96 h): ≥ 500 µg/mL
9 | O=C(Nc1nc(-c2ccccc2)co1)c1cnc2ccccc2n1 [Compound 19b] | > 125 µM | > 125 µM | > 500 µM | ≥ 500 µg/mL | > 125 µM | > 125 µM | 2.465 | 2.465 | > 500 µM | > 500 µM | > 500 µM | > 125 µM | > 125 µM | > 500 µM | > 500 µM | ≥ 500 µg/mL | > 125 µM | > 125 µM | > 500 µM | 181 to 183 °C | MIC ([2]; resazurin after 48 h): ≥ 500 µg/mL; MIC ([4]; resazurin after 96 h): 3.91 µg/mL (≈ 12.4 µM); MIC ([12]; resazurin after 96 h): 7.81 µg/mL (≈ 24.7 µM); MIC M. avium ([12]; resazurin after 96 h): strongly active

From paper PMC9143880, “Improving Antimicrobial Activity and Physico-Chemical Properties by Isosteric Replacement of 2-Aminothiazole with 2-Aminooxazole” (Pharmaceuticals, 2022)
